The source of these data is ChEMBL document CHEMBL5137086, “Discovery of 1-(Hetero)aryl-β-carboline Derivatives as IDO1/TDO Dual Inhibitors with Antidepressant Activity” (J Med Chem, 2022).

A short description of data set [1]: Acute toxicity in mouse assessed as pathological changes in liver at 10 to 20 mg/kg, ip administered once daily for 20 days by hematoxyin-eosin staining based analysis. It counts as organism-based. The conditions noted are these: in vivo, 480 h, dose 10-20 mg/kg, time 20 day.
A short description of data set [2]: Acute toxicity in mouse assessed as pathological changes in heart at 10 to 20 mg/kg, ip administered once daily for 20 days by hematoxyin-eosin staining based analysis. It counts as organism-based. The conditions noted are these: in vivo, 480 h, dose 10-20 mg/kg, time 20 day.
The nature of data set [3]: Acute toxicity in mouse assessed as pathological changes in lung at 10 to 20 mg/kg, ip administered once daily for 20 days by hematoxyin-eosin staining based analysis. It counts as organism-based. The conditions noted are these: in vivo, 480 h, dose 10-20 mg/kg, time 20 day.
The nature of data set [4]: AUC (0 to infinity) in C57BL/6J mouse at 20 mg/kg, ip measured up to 24 hrs by LC-MS/MS analysis. It counts as ADME, organism-based. More on the design: dose 20 mg/kg, time < 24 hrs, route ip. The conditions noted are these: in vivo.
Data set [5] is described as follows: Acute toxicity in mouse assessed as pathological changes in kidney at 10 to 20 mg/kg, ip administered once daily for 20 days by hematoxyin-eosin staining based analysis. It counts as organism-based. The conditions noted are these: in vivo, 480 h, dose 10-20 mg/kg, time 20 day.
Data set [6] has as its system Mus musculus. Briefly: Downregulation of IDO1 expression in hippocampus of LPS induced mouse at 20 mg/kg, ip pretreated with compound administered once daily for 2 days followed by LPS injection by Western blotting analysis. It is filed as functional, organism-based. The conditions noted are these: time 2.0 day.
Data set [7] is described as follows: Apparent volume of distribution in C57BL/6J mouse at 20 mg/kg, […] measured up to 24 hrs by LC-MS/MS analysis. It is filed as ADME, organism-based. The conditions noted are these: in vivo, read-out: Vz.
For the next data set, the system named is BV-2. Kind of data set: Antiinflammatory activity in LPS stimulated mouse BV-2 cells assessed as increase in IL-10 expression at 0.5 to 2 uM pretreated with compound for 1 hr followed by LPS stimulation and measured after 24 hrs by qRT-PCR analysis. It counts as functional, cell-based. The conditions noted are these: dose 0.5-2 µM, time 25.0 hrs.
Data set [8] has as its system Mus musculus. Briefly: Antiinflammatory activity in LPS induced mouse assessed as rescue of increase in IDO1 expression in activated microglia at 20 mg/kg, ip pretreated with compound administered once daily for 2 days followed by LPS injection by immunofluorescence analysis. It counts as functional, organism-based. The conditions noted are these: time 2.0 day.
Data set [9] is described as follows: Bioavailability in C57BL/6J mouse at 20 mg/kg, […] measured up to 24 hrs by LC-MS/MS analysis. It is filed as ADME, organism-based. The conditions noted are these: in vivo.
A short description of data set [10]: Half life in C57BL/6J mouse at 20 mg/kg, ip measured up to 24 hrs by LC-MS/MS analysis. It counts as ADME, organism-based. The conditions noted are these: in vivo.
Data set [11] is described as follows: Acute toxicity in mouse assessed as change in body weight at 10 to 20 mg/kg, ip administered once daily and measured every day for 20 days. It counts as organism-based. The conditions noted are these: in vivo, 480 h, dose 10-20 mg/kg, time 20 day.

Activity calls are given as the source filed them. No cut-off for these calls is given here.

Take `c1ccc2c(c1)[nH]c1c(-c3c[nH]cn3)nccc12`: the Activity entry in [1], in data set [2], in [3], in data set [5] and in [11] was “Non-Toxic” in each case. The same compound showed an AUC(0-inf) in [4] of 4460 ng·h/mL. Also, the outcome in the data set with Mus musculus [6], in the data set on BV-2 and with Mus musculus [8] was Active. Further, the Vd in data set [7] came out at 7.84 L/kg. In data set [9], this compound showed a bioavailability of 52.5%. The compound also showed a half-life in [10] of 46.2 min.
